The values that follow come from patent publication US20240208981A1, “NITROGEN-CONTAINING HETEROCYCLIC POLYCYCLIC COMPOUND, PREPARATION METHOD THEREFOR, AND APPLICATION THEREOF” (Shanghai Hansoh Biomedical Co., Ltd., priority 2021, published 2024).

The target in one data set is human OX2R (Homo sapiens (Human), UniProt O43614). The data set can be described thus: Calcium flux in cells stably expressing OX2 receptor (FLIPR, Fluo-8 AM). The settings on record: for IC50: CHO-K1/human OX2R cells, inhibition of calcium flux, agonist OX-B at EC80; for Selectivity multiple: OX1R IC50 versus OX2R IC50. It counts as cell-based. As for the experimental part:
(§1) To determine the inhibitory effect of the compounds on calcium flux in CHO-K1/human OX1R and CHO-K1/human OX2R cells.
(§2) • 1) CHO-K1/human OX1R and CHO-K1/human OX2R cell lines were cultured separately in complete medium at 37° C., 5% CO2 to 70%˜90% confluence; • 2) A 384-well cell culture plate was coated with 1× Matrigel (5 uL per well) at room temperature for 10-30 minutes; • 3) The cells were digested and resuspended in cell inoculation medium. CHO-K1/human OX1R and CHO-K1/human OX2R cell lines were inoculated into two 384-well cell culture plates respectively (8,000 cells/well/20 μL). The culture plates were incubated at 37 °C, 5% CO2 for 24 hours; • 4) The cell culture plates were taken out of the CO2 incubator and equilibrated at room temperature for 10 minutes; • 5) 1000× Fluo-8 AM was diluted with assay buffer 1 equilibrated to room temperature to obtain 1× Fluo-8 AM at a concentration of 2 μM; • 6) The culture medium in the cell culture plate was removed, and 20 μL of 1× Fluo-8 AM was added to each well. The plates were centrifuged at room temperature at 300 rpm for 60 seconds, and incubated at room temperature in the dark for 1 hour; • 7) Determination of EC80 of OX1 and OX2 receptors agonists (OX-A for OX1R assays, OX-B for OX2R assays): OX1 and OX2 receptors agonists working solutions were diluted and prepared respectively. The diluted OX1 and OX2 receptors agonists were added using FLIPR Tetra to the experimental wells of the 384-well cell culture plates corresponding to CHO-K1/human OX1R and CHO-K1/human OX2R cell lines. The data were collected, and EC80 of OX-A and OX-B was obtained according to the following experimental data processing method; • 8) Steps 1 to 7 were repeated. […] After 15 minutes, OX1 and OX2 receptors agonists were added to the plates of the two cell lines respectively according to the previously obtained EC80. The data were collected, and the IC50 of the positive compounds and the test compounds was determined.
(§3) Fluorescence signal value (RFU) was collected with FLIPR Tetra.

A further data set concerns the target CYP450 1A2 (Homo sapiens (Human), UniProt P05177). As to the method: (§4) The human liver microsome incubation system was used to rapidly predict the inhibitory effect of the compounds on CYP450 enzyme subtypes by using single-point method.
(§5) The compound of the example to be tested was weighed, diluted to 10 mM with DMSO, and then diluted to 100 μM with 100 mM phosphate buffer.
(§6) • 1. 40 μL of liver microsomes, 10 μL of substrate, and 10 μL of the test compound were added to a 96-well plate, and pre-incubated for 3 minutes. • 2. 40 μL of NADPH was added. • 3. 300 μL of acetonitrile stop solution containing an internal standard was added at 20 minutes. • 4. The sample was injected […].

In another data set the target is human OX1R (Homo sapiens (Human), UniProt O43613). The data set can be described thus: Calcium flux in cells stably expressing OX1 receptor (FLIPR, Fluo-8 AM). Type of data set: cell-based. The settings on record: CHO-K1/human OX1R cells; inhibition of calcium flux, agonist OX-A at EC80. As for the experimental part: as §1, §2, §3
Sequence of human OX1R (O43613 whole entry): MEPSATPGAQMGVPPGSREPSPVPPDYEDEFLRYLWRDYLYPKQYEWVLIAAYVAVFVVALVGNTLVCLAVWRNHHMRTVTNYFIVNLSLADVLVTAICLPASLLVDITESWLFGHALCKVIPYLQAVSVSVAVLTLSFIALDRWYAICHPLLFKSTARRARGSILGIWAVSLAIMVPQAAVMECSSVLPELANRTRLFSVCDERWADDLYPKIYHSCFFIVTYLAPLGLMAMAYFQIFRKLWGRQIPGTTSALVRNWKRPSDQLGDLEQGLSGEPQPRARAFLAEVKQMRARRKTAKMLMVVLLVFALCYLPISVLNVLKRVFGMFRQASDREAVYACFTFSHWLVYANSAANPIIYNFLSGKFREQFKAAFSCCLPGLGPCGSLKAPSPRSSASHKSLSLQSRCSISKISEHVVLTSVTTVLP
On the technique in general: Calcium assays in cells follow changes in intracellular calcium, usually with a dye or a luminescent sensor.

In the next data set the target is CYP450 2C9 (Homo sapiens (Human), UniProt P11712). The data set can be described thus: CYP enzyme single point inhibition assay, human liver microsomes, 2C9. Conditions: single-point method. It counts as in vitro ADME. As for the experimental part:
as §4, §5, §6
Background: Microsomes from liver hold many membrane-bound enzymes, among them those of drug oxidation.

Another data set concerns the target CYP450 2D6 (Homo sapiens (Human), UniProt P10635). The data set can be described thus: CYP enzyme single point inhibition assay, human liver microsomes, 2D6. Type of data set: in vitro ADME. The settings on record: single-point method. As for the experimental part:
as §4, §5, §6

The next data set is described as follows: in vivo. Conditions: male, SD, rat, po, 5 mg/kg. As for the experimental part:
SD rats were used as test animals.
The plasma samples were stored at −80° C.

A value given as a limit tells only on which side of the number the result lay.

Sequence of CYP450 1A2 (P05177 whole entry): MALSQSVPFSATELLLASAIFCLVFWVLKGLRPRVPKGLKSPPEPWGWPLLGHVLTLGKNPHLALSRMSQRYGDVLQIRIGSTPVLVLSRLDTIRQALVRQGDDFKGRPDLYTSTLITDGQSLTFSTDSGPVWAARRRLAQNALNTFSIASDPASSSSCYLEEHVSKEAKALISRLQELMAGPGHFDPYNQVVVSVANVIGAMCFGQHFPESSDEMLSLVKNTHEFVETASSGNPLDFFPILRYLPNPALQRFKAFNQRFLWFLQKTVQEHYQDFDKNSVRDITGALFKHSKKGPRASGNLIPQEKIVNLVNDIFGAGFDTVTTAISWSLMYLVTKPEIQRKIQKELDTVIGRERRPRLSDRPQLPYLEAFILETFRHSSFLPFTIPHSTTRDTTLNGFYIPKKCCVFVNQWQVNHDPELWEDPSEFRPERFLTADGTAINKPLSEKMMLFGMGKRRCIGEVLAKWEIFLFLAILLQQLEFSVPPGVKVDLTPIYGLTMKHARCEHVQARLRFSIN
Sequence of human OX2R (O43614 whole entry): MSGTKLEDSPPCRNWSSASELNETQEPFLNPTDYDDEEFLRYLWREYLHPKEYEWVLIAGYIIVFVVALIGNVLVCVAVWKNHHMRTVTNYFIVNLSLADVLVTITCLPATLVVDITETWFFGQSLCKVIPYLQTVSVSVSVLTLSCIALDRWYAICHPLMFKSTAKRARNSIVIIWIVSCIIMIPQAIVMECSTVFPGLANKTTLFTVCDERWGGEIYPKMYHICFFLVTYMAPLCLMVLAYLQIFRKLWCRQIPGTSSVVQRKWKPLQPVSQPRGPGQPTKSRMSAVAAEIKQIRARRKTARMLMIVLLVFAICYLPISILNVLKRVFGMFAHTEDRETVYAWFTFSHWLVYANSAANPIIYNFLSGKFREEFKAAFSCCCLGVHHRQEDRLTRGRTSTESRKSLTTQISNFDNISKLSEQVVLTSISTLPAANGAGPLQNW
Sequence of CYP450 2D6 (P10635 whole entry): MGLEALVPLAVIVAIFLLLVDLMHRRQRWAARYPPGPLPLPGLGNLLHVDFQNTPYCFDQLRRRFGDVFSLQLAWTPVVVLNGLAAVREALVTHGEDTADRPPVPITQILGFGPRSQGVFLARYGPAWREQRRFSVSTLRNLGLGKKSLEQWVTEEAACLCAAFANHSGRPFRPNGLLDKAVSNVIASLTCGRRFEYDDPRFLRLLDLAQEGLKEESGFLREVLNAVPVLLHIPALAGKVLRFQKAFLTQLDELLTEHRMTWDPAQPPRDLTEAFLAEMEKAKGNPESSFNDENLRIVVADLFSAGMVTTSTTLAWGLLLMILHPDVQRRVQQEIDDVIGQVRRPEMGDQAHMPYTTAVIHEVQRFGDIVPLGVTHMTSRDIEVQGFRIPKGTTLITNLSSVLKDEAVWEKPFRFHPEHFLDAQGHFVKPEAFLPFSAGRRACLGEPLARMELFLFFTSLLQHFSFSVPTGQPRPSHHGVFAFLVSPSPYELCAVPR
Sequence of CYP450 2C9 (P11712 whole entry): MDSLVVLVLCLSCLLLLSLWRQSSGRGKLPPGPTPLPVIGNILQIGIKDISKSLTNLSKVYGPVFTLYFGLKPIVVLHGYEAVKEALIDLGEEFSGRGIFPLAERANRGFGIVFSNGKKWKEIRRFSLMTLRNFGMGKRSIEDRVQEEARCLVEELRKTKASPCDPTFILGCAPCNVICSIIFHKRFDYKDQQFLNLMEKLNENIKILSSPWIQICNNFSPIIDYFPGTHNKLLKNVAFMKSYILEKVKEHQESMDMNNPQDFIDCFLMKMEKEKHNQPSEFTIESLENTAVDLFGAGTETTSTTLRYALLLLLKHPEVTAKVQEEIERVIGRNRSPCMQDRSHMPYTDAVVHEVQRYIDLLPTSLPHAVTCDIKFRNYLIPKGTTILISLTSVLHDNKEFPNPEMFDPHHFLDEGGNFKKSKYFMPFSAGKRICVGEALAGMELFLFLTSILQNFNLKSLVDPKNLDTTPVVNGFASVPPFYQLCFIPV

Usually IC50 stands for the concentration that inhibits the measured activity by half. On to `Cc1cc(N2C[C@H]3CN(C(=O)c4c(F)cccc4-n4nccn4)C[C@H]3C2)nc(C(C)(C)O)c1` [Compound 60, (2-fluoro-6-(2H-1,2,3-triazol-2-yl)phenyl)((3R,6S)-5-(6-(2-hydroxypropan-2-yl)-4-methylpyridin-2-yl)hexahydropyrrolo[3,4-c]pyrrol-2(1H)-yl)methanone], for which the concentration for half-maximal inhibition (IC50) on human OX2R is 0.0552 µM; on CYP450 1A2, above 100 µM; at human OX1R, 13.5 µM. For the same molecule, on human OX2R, the Selectivity multiple stood at 244.
For `Cc1cc(C(C)(C)O)nc(N2C[C@H]3CN(C(=O)c4c(F)cccc4-n4nccn4)C[C@H]3C2)n1` [Compound 3, (2-fluoro-6-(2H-1,2,3-triazol-2-yl)phenyl)((3aR,6aS)-5-(4-(2-hydroxypropan-2-yl)-6-methylpyrimidin-2-yl)hexahydropyrrolo[3,4-c]pyrrol-2(1H)-yl)methanone], at human OX2R, the IC50 worked out at 0.0444 µM and the Selectivity multiple is 83. In addition, the IC50 on human OX1R worked out at 3.7 µM.
The like results for `Cc1cc(C)nc(N2C[C@H]3CN(C(=O)c4ccccc4OC(F)(F)C(F)F)C[C@H]3C2)n1` [Compound 45, ((3aR,6aS)-5-(4,6-dimethylpyrimidin-2-yl)hexahydropyrrolo[3,4-c]pyrrol-2(1H)-yl)(2-(1,1,2,2-tetrafluoroethoxy)phenyl)methanone] were, in that order, 0.0522 µM, 83 and 4.33 µM.
Regarding `Cc1cc(C)nc(N2C[C@H]3CN(C(=O)c4ccccc4-c4nc5ccccc5o4)C[C@H]3C2)n1` [Compound 50, (2-(benzooxazol-2-yl)phenyl)((3aR,6aS)-5-(4,6-dimethylpyrimidin-2-yl)hexahydropyrrolo[3,4-c]pyrrol-2(1H)-yl)methanone], the IC50 on human OX2R is 0.0711 µM; at human OX1R, 5.84 µM. The Selectivity multiple at human OX2R came out at 82.
The matching figures for `Cc1ccc(N2C[C@H]3CN(C(=O)c4c(F)cccc4-n4nccn4)C[C@H]3C2)nc1C(C)(C)O` [Compound 48, (2-fluoro-6-(2H-1,2,3-triazol-2-yl)phenyl)((3aR,6aS)-5-(6-(2-hydroxypropan-2-yl)-5-methylpyridin-2-yl)hexahydropyrrolo[3,4-c]pyrrol-2(1H)-yl)methanone]: 0.0745 µM, 24.4 µM and 328.
As to `Cc1nc(N2C[C@H]3CN(C(=O)c4cccc(F)c4-n4nccn4)C[C@H]3C2)nc(C(C)(C)O)c1F` [Compound 95, (3-fluoro-2-(2H-1,2,3-triazol-2-yl)phenyl)((cis)-5-(5-fluoro-4-(2-hydroxypropan-2-yl)-6-methylpyrimidin-2-yl)hexahydropyrrolo[3,4-c]pyrrol-2(1H)-yl)methanone], the Selectivity multiple on human OX2R is 49. The IC50 against CYP450 2C9, against CYP450 1A2 and against CYP450 2D6 was above 100 µM each time.
As for `Cc1nc(N2C[C@H]3CN(C(=O)c4c(F)cccc4-c4ccccn4)C[C@H]3C2)nc(C(C)(C)O)c1F` [Compound 97, ((3aR,6aS)-5-(5-fluoro-4-(2-hydroxypropan-2-yl)-6-methylpyrimidin-2-yl)hexahydropyrrolo[3,4-c]pyrrol-2(1H)-yl)(2-fluoro-6-(pyridin-2-yl)phenyl)methanone], the Selectivity multiple at human OX2R is on record as 36.
For orientation: AUC(0-inf) means the area under the concentration-time curve extrapolated to infinity. Low values mean low exposure, high ones high exposure. A word on the Cmax: it is the peak of the concentration-time curve. As usually defined, the Tmax is the time at which the peak concentration occurs. In the case of `Cc1cc(C(C)(C)F)nc(N2C[C@H]3CN(C(=O)c4c(F)cccc4-n4nccn4)C[C@H]3C2)n1` [Compound 57, (2-fluoro-6-(2H-1,2,3-triazol-2-yl)phenyl)((3aR,6aS)-5-(4-(2-fluoropropan-2-yl)-6-methylpyrimidin-2-yl)hexahydropyrrolo[3,4-c]pyrrol-2(1H)-yl)methanone], on human OX2R, the IC50 amounted to 0.0097 µM and the Selectivity multiple is 314. For the same molecule, in “in vivo”, the AUC(0-inf) turned out to be 279 ng·h/mL, the highest concentration (Cmax) came to 110 ng/mL and the Tmax was 30 min. Also, the IC50 at human OX1R was found to be 3.05 µM.
Turning to `CC(C)(O)c1nc(N2C[C@H]3CN(C(=O)c4c(F)cccc4-n4nccn4)C[C@H]3C2)ccc1F` [Compound 91, ((3aR,6aS)-5-(5-fluoro-6-(2-hydroxypropanyl)pyridin-2-yl)hexahydropyrrolo[3,4-c]pyrrol-2(1H)-yl)(2-fluoro-6-(2H-1,2,3-triazol-2-yl)phenyl)methanone], the IC50 at human OX2R was 0.0359 µM; at human OX1R, 3.16 µM. In addition, the Selectivity multiple at human OX2R worked out at 88.
The matching figures for `Cc1cc(C)nc(N2C[C@H]3CN(C(=O)c4c(F)cccc4-n4ncc(C5CC5)n4)C[C@H]3C2)n1` [Compound 43, (2-(4-cyclopropyl-2H-1,2,3-triazol-2-yl)-6-fluorophenyl)((3aR,6aS)-5-(4,6-dimethylpyrimidin-2-yl)hexahydropyrrolo[3,4-c]pyrrol-2(1H)-yl)methanone]: 0.0999 µM, 10.2 µM and 102.
The matching figures for `Cc1nc(N2C[C@H]3CN(C(=O)c4ccc(F)cc4-n4nccn4)C[C@H]3C2)nc(C(C)(C)O)c1F` [Compound 94, (4-fluoro-2-(2H-1,2,3-triazol-2-yl)phenyl)((cis)-5-(5-fluoro-4-(2-hydroxypropan-2-yl)-6-methylpyrimidin-2-yl)hexahydropyrrolo[3,4-c]pyrrol-2(1H)-yl)methanone]: 0.0252 µM, 1.2 µM and 48.
In the case of `Cc1cc(N2C[C@H]3CN(C(=O)c4c(O)cccc4-n4nccn4)C[C@H]3C2)nc(C(C)(C)O)c1` [Compound 85, (2-hydroxy-6-(2H-1,2,3-triazol-2-yl)phenyl)((3R,6S)-5-(6-(2-hydroxypropan-2-yl)-4-methylpyridin-2-yl)hexahydropyrrolo[3,4-c]pyrrol-2(1H)-yl)methanone], on human OX2R, the IC50 came out at 0.0585 µM and the Selectivity multiple amounted to 234. The IC50 on human OX1R is 13.7 µM.
Regarding `CC(C)(O)c1nc(N2C[C@H]3CN(C(=O)c4c(F)cccc4-c4ncccn4)C[C@H]3C2)ncc1F` [Compound 93, ((3aR,6aS)-5-(5-fluoro-4-(2-hydroxypropan-2-yl)pyrimidin-2-yl)hexahydropyrrolo[3,4-c]pyrrol-2(1H)-yl)(2-fluoro-6-(pyrimidin-2-yl)phenyl)methanone], the Selectivity multiple on human OX2R is 122. Also, the 50% inhibitory concentration (IC50) at CYP450 2C9, at CYP450 1A2 and against CYP450 2D6 was above 100 µM throughout.
Take `Cc1cc(C(C)(C)O)nc(N2C[C@H]3CN(C(=O)c4c(F)cccc4-c4ncccn4)C[C@H]3C2)n1` [Compound 56, (2-fluoro-6-(pyrimidin-2-yl)phenyl)((3R,6S)-5-(4-(2-hydroxypropan-2-yl)-6-methylpyrimidin-2-yl)hexahydropyrrolo[3,4-c]pyrrol-2(1H)-yl)methanone]: at human OX2R, the IC50 amounted to 0.0082 µM and the Selectivity multiple was determined as 405. Also, the IC50 on human OX1R came out at 3.32 µM.
